Where “and” joins values, the source holds several entries; their conditions need not be identical. Equal entries are not always repeated. Where two headings read alike, the source gives them in different places. Values belong to the compound of their own block, whether it stands above or below them.
Columns and labels:
[1] = Tablet strength graded 1-5 by hand and by dropping the tablet; assay type: physicochemical; set-up: key: strength grade on a 1-5 scale
Method: (§1) A variety of candidate materials were used to make compressed tablets, and the tablet properties, such as strength and disintegration time, were examined. Particles of each material were compressed under different pressure by a Carver press. The hardness of the tablet was tested by hand for initial qualitative measurement and also by dropping the tablet from a certain height onto the laboratory bench top or to the floor. The tablet strength was graded by assigning a number ranging from 1-5. […] Each tablet was placed into 5 mL water and observed for 30 seconds to see if it disintegrated and dissolved in that time period.

[2] = Tablet placed into 5 mL water and observed for 30 seconds for disintegration and dissolution; assay type: physicochemical
Method: as §1

[3] = summary of the materials survey, pressure not stated
[4] = compression pressure 70.2 MPa, 5 mL water, 30 seconds
[5] = compression pressure 105 MPa, 5 mL water, 30 seconds
[6] = compression pressure 35.1 MPa, 5 mL water, 30 seconds

Tablet Strength ([1]; compression pressure 70.2 MPa): 2
Compound: OC[C@@H](O)[C@@H](O)[C@H](O)[C@H](O)CO [Mannitol]

Tablet Strength ([1]; compression pressure 105 MPa): 3
Compound: O=P([O-])(O)O.O=P([O-])(O)O.[Ca+2] [Calcium Phosphate, Monobasic]

Tablet Strength ([1]; compression pressure 70.2 MPa): 3
Compound: CC(C)Cc1ccc(C(C)C(=O)O)cc1 (stereo not shown) [Ibuprofen, reference compound]

Disintegration Characteristics [2, 6]: No disintegration.
Disintegration Characteristics [2, 4]: No disintegration.
Disintegration Characteristics [2, 5]: No disintegration.
Compound: Cn1c(=O)c2[nH]cnc2n(C)c1=O [Theophyline, reference compound]

Tablet Strength ([1]; compression pressure 35.1 MPa): 4
Tablet Strength ([1]; compression pressure 105 MPa): 4
Disintegration Characteristics [2, 6]: No disintegration.
Disintegration Characteristics [2, 5]: No disintegration.
Compound: OC[C@H]1O[C@@H]2O[C@H]3[C@H](O)[C@@H](O)[C@@H](O[C@H]4[C@H](O)[C@@H](O)[C@@H](O[C@H]5[C@H](O)[C@@H](O)[C@@H](O[C@H]6[C@H](O)[C@@H](O)[C@@H](O[C@H]7[C@H](O)[C@@H](O)[C@@H](O[C@H]8[C@H](O)[C@@H](O)[C@@H](O[C@H]1[C@H](O)[C@H]2O)O[C@@H]8CO)O[C@@H]7CO)O[C@@H]6CO)O[C@@H]5CO)O[C@@H]4CO)O[C@@H]3CO [Beta-Cyclodextrin]

Tablet Strength ([1]; compression pressure 105 MPa): 2
Disintegration (screening summary) [2, 3]: fast disintegration
Compound: NCC(=O)O [Glycine]

Tablet Strength ([1]; compression pressure 70.2 MPa): 4
Disintegration (screening summary) [2, 3]: fast disintegration
Compound: O=P([O-])([O-])O.[Ca+2] [DITAB, Calcium Phosphate, Dibasic]

The remaining lines, values behind:

Compound: OC[C@H]1O[C@@](CO)(O[C@H]2O[C@H](CO)[C@@H](O)[C@H](O)[C@H]2O)[C@@H](O)[C@@H]1O [Sucrose]
Tablet Strength ([1]; compression pressure 70.2 MPa): 2
Tablet Strength ([1]; compression pressure 91.3 MPa): 2
Disintegration Characteristics ([2]; compression pressure 91.3 MPa, 5 mL water, 30 seconds): No improvement.

Compound: O=C([O-])[O-].[Ca+2] [Calcium Carbonate]
Tablet Strength [1]: 2
Disintegration (screening summary) [2]: fast disintegration

Compound: Calcium Gluconate
Tablet Strength ([1]; compression pressure 35.1 MPa): 4

Compound: O.OC[C@H]1O[C@@H](O[C@H]2[C@H](O)[C@@H](O)C(O)O[C@@H]2CO)[C@H](O)[C@@H](O)[C@H]1O (stereo partly shown) [Lactose monohydrate]
Tablet Strength ([1]; compression pressure 70.2 MPa): 3

Compound: N[C@@H](CCC(=O)O)C(=O)O [Glutamic acid]
Tablet Strength ([1]; compression pressure 105 MPa): 3
Disintegration (screening summary) [2, 3]: fast disintegration

Compound: [Ca+2].[Cl-].[Cl-] [Calcium Chloride]
Tablet Strength [1]: 4

Compound: O=C(O)c1ccccc1O [Salicylic Acid]
Tablet Strength ([1]; compression pressure 35.1 MPa): 1
Tablet Strength ([1]; compression pressure 70.2 MPa): 2
Tablet Strength ([1]; compression pressure 105 MPa): 2
Disintegration Characteristics [2, 4]: No disintegration.
Disintegration Characteristics [2, 5]: No disintegration.

Compound: O=C1NS(=O)(=O)c2ccccc21.[Na] [Sodium Saccharin]
Tablet Strength ([1]; compression pressure 35.1 MPa): 1
Tablet Strength ([1]; compression pressure 70.2 MPa): 2
Tablet Strength ([1]; compression pressure 105 MPa): 2
Disintegration Characteristics [2, 6]: Instant disintegration
Disintegration Characteristics [2, 4]: Instant disintegration
Disintegration Characteristics [2, 5]: Instant disintegration
Disintegration (screening summary) [2, 3]: fast disintegration

Compound: Cn1c(=O)c2c(ncn2C)n(C)c1=O [Caffeine, reference compound]
Tablet Strength ([1]; compression pressure 35.1 MPa): 3
Tablet Strength ([1]; compression pressure 70.2 MPa): 4
Disintegration Characteristics [2, 4]: Breaking into particles after 20 sec.

Compound: CC(=O)[O-].CC(=O)[O-].[Ca+2] [Calcium Acetate]
Tablet Strength [1]: 4
Disintegration Characteristics [2]: No disintegration.

Compound: CC(=O)Oc1ccccc1C(=O)O [Aspirin, reference compound]
Tablet Strength ([1]; compression pressure 35.1 MPa): 2
Tablet Strength ([1]; compression pressure 70.2 MPa): 3
Tablet Strength ([1]; compression pressure 105 MPa): 4

Compound: CC(=O)[O-].CC(=O)[O-].[Zn+2] [Zinc Acetate]
Tablet Strength [1]: 3
Disintegration Characteristics [2]: No disintegration.

Compound: O=C([O-])[O-].[Na+].[Na+] [Sodium Carbonate]
Tablet Strength [1]: 4 and 3
Disintegration Characteristics [2]: No disintegration.

Compound: [Cl-].[Na+] [Sodium Chloride]
Tablet Strength ([1]; compression pressure 70.2 MPa): 2
Tablet Strength ([1]; compression pressure 105 MPa): 2
Disintegration Characteristics [2, 4]: No disintegration.
Disintegration Characteristics [2, 5]: No disintegration.

Compound: OC[C@H]1O[C@H](O[C@H]2[C@H](O)[C@@H](O)[C@H](O)O[C@@H]2CO)[C@H](O)[C@@H](O)[C@@H]1O [Maltose]
Tablet Strength ([1]; compression pressure 70.2 MPa): 3
Disintegration Characteristics [2, 4]: Total disintegration of the entire tablet.
Disintegration (screening summary) [2, 3]: fast disintegration
